# Test results taken from US9193697B2, “Oxazole derivatives useful as modulators of FAAH” (MERCK SHARP & DOHME CORP., priority 2010, dated 2015).
# Legend:
# [1] = biological target: T1, human FAAH (Fatty Acid Amide Hydrolase) (Homo sapiens (Human), UniProt O00519); test: FAAH inhibition, human FAAH CHO cell lysate (AAMCA fluorescence); type: biochemical
# Excerpt: (§1) To assist in assay development stable cell lines for human, murine and rat full length FAAH were developed. […] The full length FAAH was subcloned into the mammalian expression vector, pcDEF.neo, using XbaI and EcoRI restriction sites and used for stable cell line generation.
# (§2) The full length murine FAAH was subcloned into the mammalian expression vector, pcDEFneo using either EcoRI (murine) or KpnI and EcoRI (rat) restriction sites. Chinese hamster ovary cells (CHO) were transfected following manufacturers protocol (AMAXA). Forty eight hours post transfection, cells were trypsinized and transferred to 96 well plates in Iscove's DMEM media supplemented with 2 mM Glutamine, 10% fetal calf serum, 1 mg/ml geneticin and HT Supplement (0.1 mM sodium hypoxanthine, 0.016 mM thymidine) in order to isolate single clones. […] Following removal of tissue culture media cells were dislodged following addition of Cellstripper (Mediatech, Inc. Manassas, Va.) and transferred to 96 well black clear bottom assay plate, centrifuged at 1,000 rpm for 3 mins and media removed and replaced with assay buffer (50 mM Tris pH8.0, 1 mM EDTA, 0.1% fatty acid free BSA). The reaction was initiated by addition of fluorescent substrate, AMC Arachidonoyl Amide (Cayman Chemical, Ann Arbor, Mich.) to 1 μM and reaction allowed to proceed for 2 hours at room temperature. Release of fluorescence was monitored in a CytoFluor Multiplate Reader.
# CHO cells expressing FAAH were used to prepare either crude cell lysate or microsome fractions. To harvest cells, tissue culture media was decanted, the monolayer washed three times with Ca^++Mg^++ free PBS and cells recovered after 15 min in enzyme free dissociation media (Millipore Corp, Billerica, Mass.). Cells were collected by centrifuging at 2000 rpm for 15 min, and the cell pellet re-suspended with 50 mM HEPES (pH 7.4) containing 1 mM EDTA and the protease inhibitors aprotinin (1 mg/ml) and leupeptin (100 μM). The suspension was sonicated at 4° C. and the cell lysate recovered after centrifuging at 12,000×g (14,600 rpm, SS34 rotor) for 20 min at 4° C. to form a crude pellet of cell debris, nuclei, peroxisomes, lysosomes, and mitochondria; the supernatant or cell lysate was used for FAAH enzyme assay. In some eases, microsomes fractions enriched in FAAH were prepared by centrifuging the cell lysate further at 27,000 rpm (100,000×g) in SW28 rotor for 50 minutes at 4° C. The pellet containing FAAH-enriched microsomes was re-suspend in 50 mM HEPES, (pH 7.4) 1 mM EDTA, and any remaining DNA sheared by passage of material through a 23 gauge needle and aliquots of enzyme were store at −80° C. prior to use.
# (§3) Assays are performed on either cell lysate or microsome fractions prepared as described or in whole cell format employing either the fluorescent substrate AAMCA (Cayman chemical, Ann Arbor, Mich.,) or ^3H-anandamide ([ETHANOLAMINE-1-3H] American Radiolabeled Chemicals; 1 mCi/ml). […] AAMCA substrate was used to achieve a final concentration of 1 μM and reaction allowed to proceed at room temperature for 1-3 hours. […] Whole cell assay is conducted with cells harvested after rinsing tissue culture flasks three times with Ca^++Mg^++ free PBS, incubating for 10 min in Enzyme free dissociation media and centrifuging for 5 minutes at 1,000 rpm in table top centrifuge. Cells are resuspended in assay buffer at desired cell number in (4×10^4 cells/assay in 96-well format; 1×10^4 cells/assay in 384-well format) and assayed as described.
# Alternatively, assays are performed using anandamide [ethanolamine 1-^3H] (specific activity of 10 Ci/mmol) diluted with cold anandamide to achieve a final assay concentration of 1 μM anandamide (˜50,000 cpm). Enzyme (CHO cell lysate, brain or liver homogenate) is incubated in assay buffer (50 mM Phosphate, pH 8.0, 1 mM EDTA, 200 mM KCl, 0.2% glycerol, 0.1% fatty acid free BSA) with inhibitor at 25° C. for 30 minutes.
# [2] = biological target: T1, human FAAH (Fatty Acid Amide Hydrolase); test: FAAH inhibition, human FAAH CHO whole cell format; type: cell-based
# Excerpt: as §1, §2, §3
# T1 sequence (O00519 whole entry): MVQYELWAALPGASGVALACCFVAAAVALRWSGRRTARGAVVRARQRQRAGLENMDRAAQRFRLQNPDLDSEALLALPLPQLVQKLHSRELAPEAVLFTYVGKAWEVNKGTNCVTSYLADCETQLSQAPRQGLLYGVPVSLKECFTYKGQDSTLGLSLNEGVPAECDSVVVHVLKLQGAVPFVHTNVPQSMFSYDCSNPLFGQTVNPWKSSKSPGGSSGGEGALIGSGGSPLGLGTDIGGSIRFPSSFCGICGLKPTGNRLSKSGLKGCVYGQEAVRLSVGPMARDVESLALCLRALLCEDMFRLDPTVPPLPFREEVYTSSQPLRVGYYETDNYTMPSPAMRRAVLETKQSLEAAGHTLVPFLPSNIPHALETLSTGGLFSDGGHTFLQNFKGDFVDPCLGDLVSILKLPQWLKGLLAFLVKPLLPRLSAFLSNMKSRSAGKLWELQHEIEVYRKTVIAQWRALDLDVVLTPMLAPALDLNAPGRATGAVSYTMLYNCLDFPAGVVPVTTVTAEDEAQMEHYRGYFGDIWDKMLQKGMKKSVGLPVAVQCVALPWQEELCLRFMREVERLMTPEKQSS
Compound,IC50 [1],IC50 [2]
"CCOC(=O)N1CCC(c2nc(-c3ccc([S+](C)[O-])cc3)c(Sc3ccc(Cl)cn3)o2)CC1 (stereo not drawn) [Example A7.23, ethyl 4-{5-[(5-chloropyridin-2-yl)sulfanyl]-4-[4-(methylsulfinyl)phenyl]-1,3-oxazol-2-yl}piperidine-1-carboxylate]",61.7 nM,436 nM
"COCCOC(=O)N1CCC(c2nc(-c3ccc([S+](C)[O-])cc3)c(Sc3ccc(Cl)cn3)o2)CC1 (stereo not drawn) [Example A7.24, 2-methoxyethyl 4-{5-[(5-chloropyridin-2-yl)sulfanyl]-4-[4-(methylsulfinyl)phenyl]-1,3-oxazol-2-yl}piperidine-1-carboxylate]",200 nM,1330 nM
"COCCOCC(=O)N1CCC(c2nc(-c3ccc([S+](C)[O-])cc3)c(Sc3ccc(Cl)cn3)o2)CC1 (stereo not drawn) [Example A7.25, 1-(4-{5-[(5-chloropyridin-2-yl)sulfanyl]-4-[4-(methylsulfinyl)phenyl]-1,3-oxazol-2-yl}piperidin-1-yl)-2-(2-methoxyethoxy)ethanone]",525 nM,4670 nM
COCCOCCOCC(=O)N1CCC(c2nc(-c3ccc([S+](C)[O-])cc3)c(Sc3ccc(Cl)cn3)o2)CC1 (stereo not drawn) [Example A7.26],748 nM,6550 nM
"C[S+]([O-])c1ccc(-c2nc(C3CCN(C(=O)OCCN4CCOCC4)CC3)oc2Sc2ccc(Cl)cn2)cc1 (stereo not drawn) [Example A7.27, 2-(morpholin-4-yl)ethyl 4-{5-[(5-chloropyridin-2-yl)sulfanyl]-4-[4-(methylsulfinyl)phenyl]-1,3-oxazol-2-yl}piperidine-1-carboxylate]",482 nM,5010 nM
"CN(C)CCOC(=O)N1CCC(c2nc(-c3ccc([S+](C)[O-])cc3)c(Sc3ccc(Cl)cn3)o2)CC1 (stereo not drawn) [Example A7.29, 2-(dimethylamino)ethyl 4-{5-[(5-chloropyridin-2-yl)sulfanyl]-4-[4-(methylsulfinyl)phenyl]-1,3-oxazol-2-yl}piperidine-1-carboxylate]",1910 nM,≥ 10000 nM
"C[S+]([O-])c1ccc(-c2nc(C3CCN(C(=O)OCCNCCO)CC3)oc2Sc2ccc(Cl)cn2)cc1 (stereo not drawn) [Example A7.30, 2-[(2-hydroxyethyl)amino]ethyl 4-{5-[(5-chloropyridin-2-yl)sulfanyl]-4-[4-(methylsulfinyl)phenyl]-1,3-oxazol-2-yl}piperidine-1-carboxylate]",2140 nM,≥ 10000 nM
"Clc1ccc(Sc2oc(C3CCOCC3)nc2C2CCNCC2)nc1 [Example A7.31, 5-chloro-2-{[4-(piperidin-4-yl)-2-(tetrahydro-2H-pyran-4-yl)-1,3-oxazol-5-yl]sulfanyl}pyridine]",10000 nM,≥ 10000 nM
"CC(C)(O)c1ccc(-c2nc(C3CCOCC3)oc2Sc2ccc(Cl)cc2)cn1 [Example B5.1, 2-(5-{5-[(4-chlorophenyl)sulfanyl]-2-(tetrahydro-2H-pyran-4-yl)-1,3-oxazol-4-yl}pyridin-2-yl)propan-2-ol]",17.9 nM,45.1 nM
"Clc1ccc(Sc2oc(C3CCOCC3)nc2-c2ccc3[nH]ncc3c2)cc1 [Example B5.2, 5-{5-[(4-chlorophenyl)sulfanyl]-2-(tetrahydro-2H-pyran-4-yl)-1,3-oxazol-4-yl}-1H-indazole]",4.19 nM,10.9 nM
"Clc1ccc(Sc2oc(C3CCOCC3)nc2-c2ccc(N3CCOCC3)nc2)cc1 [Example B5.3, 4-(5-{5-[(4-chlorophenyl)sulfanyl]-2-(tetrahydro-2H-pyran-4-yl)-1,3-oxazol-4-yl}pyridin-2-yl)morpholine]",12.8 nM,38.5 nM
"Clc1ccc(Sc2oc(C3CCOCC3)nc2-c2cnc3[nH]ccc3c2)cc1 [Example B5.4, 5-{5-[(4-chlorophenyl)sulfanyl]-2-(tetrahydro-2H-pyran-4-yl)-1,3-oxazol-4-yl}-1H-pyrrolo[2,3-b]pyridine]",27.6 nM,63.8 nM
"Clc1ccc(Sc2oc(C3CCOCC3)nc2-c2cnn(CC3OCCO3)c2)cc1 [Example B5.5, 5-[(4-chlorophenyl)sulfanyl]-4-[1-(1,3-dioxolan-2-ylmethyl)-1H-pyrazol-4-yl]-2-(tetrahydro-2H-pyran-4-yl)-1,3-oxazole]",255 nM,1050 nM
"Clc1ccc(Sc2oc(C3CCOCC3)nc2-c2ccc3ncnn3c2)cc1 [Example B5.6, 6-{5-[(4-chlorophenyl)sulfanyl]-2-(tetrahydro-2H-pyran-4-yl)-1,3-oxazol-4-yl}[1,2,4]triazolo[1,5-a]pyridine]",118 nM,421 nM
"Cn1nnc2ccc(-c3nc(C4CCOCC4)oc3Sc3ccc(Cl)cc3)cc21 [Example B5.7, 6-{5-[(4-chlorophenyl)sulfanyl]-2-(tetrahydro-2H-pyran-4-yl)-1,3-oxazol-4-yl}-1-methyl-1H-benzotriazole]",92.2 nM,169 nM
"Clc1ccc(Sc2oc(C3CCOCC3)nc2-c2cn[nH]c2)cc1 [Example B5.8, 5-[(4-chlorophenyl)sulfanyl]-4-(1H-pyrazol-4-yl)-2-(tetrahydro-2H-pyran-4-yl)-1,3-oxazole]",146 nM,737 nM
"Clc1ccc(Sc2oc(C3CCOCC3)nc2-c2ccc(N3CCNCC3)nc2)cc1 [Example B5.9, 1-(5-{5-[(4-chlorophenyl)sulfanyl]-2-(tetrahydro-2H-pyran-4-yl)-1,3-oxazol-4-yl}pyridin-2-yl)piperazine]",9.61 nM,115 nM
"Clc1ccc(Sc2oc(C3CCOCC3)nc2-c2cnc3[nH]ncc3c2)cc1 [Example B5.10, 5-{5-[(4-chlorophenyl)sulfanyl]-2-(tetrahydro-2H-pyran-4-yl)-1,3-oxazol-4-yl}-1H-pyrazolo[3,4-b]pyridine]",67.6 nM,98.1 nM
"CN(C)c1ncc(-c2nc(C3CCOCC3)oc2Sc2ccc(Cl)cc2)cn1 [Example B5.11, 5-{5-[(4-chlorophenyl)sulfanyl]-2-(tetrahydro-2H-pyran-4-yl)-1,3-oxazol-4-yl}-N,N-dimethylpyrimidin-2-amine]",13.1 nM,36.9 nM
"Clc1ccc(Sc2oc(C3CCOCC3)nc2-c2cnc3cc[nH]c3c2)cc1 [Example B5.12, 6-{5-[(4-chlorophenyl)sulfanyl]-2-(tetrahydro-2H-pyran-4-yl)-1,3-oxazol-4-yl}-1H-pyrrolo[3,2-b]pyridine]",113 nM,279 nM
"COC(=O)Cn1cc(-c2nc(C3CCOCC3)oc2Sc2ccc(Cl)cc2)cn1 [Example B5.13, methyl (4-{5-[(4-chlorophenyl)sulfanyl]-2-(tetrahydro-2H-pyran-4-yl)-1,3-oxazol-4-yl}-1H-pyrazol-1-yl)acetate]",320 nM,847 nM
"Clc1ccc(Sc2oc(C3CCOCC3)nc2C2=CCCNC2)cc1 [Example B5.15, 5-{5-[(4-chlorophenyl)sulfanyl]-2-(tetrahydro-2H-pyran-4-yl)-1,3-oxazol-4-yl}-1,2,3,6-tetrahydropyridine]",4530 nM,≥ 10000 nM
"C[S+]([O-])c1ccc(-c2nc(C3=CCCCC3)oc2Sc2ccc(Cl)cc2)cc1 (stereo not drawn) [Example C6.1, 5-[(4-chlorophenyl)sulfanyl]-2-(cyclohex-1-en-1-yl)-4-[4-(methylsulfinyl)phenyl]-1,3-oxazole]",11.9 nM,105 nM
"C[S+]([O-])c1ccc(-c2nc(C3=CCC(O)CC3)oc2Sc2ccc(Cl)cc2)cc1 (stereo not drawn) [Example C6.2, 4-{5-[(4-Chlorophenyl)sulfanyl]-4-[4-(methylsulfinyl)phenyl]-1,3-oxazol-2-yl}cyclohex-3-en-1-ol]",8.68 nM,47.2 nM
